The values below come from US8957062B2, “Substituted cyclopropyl compounds, compositions containing such compounds and methods of treatment” (Merck Sharp & Dohme Corp., priority 2011, dated 2015).

pEC50: −log10 of the molar value.

In the first experiment the target is T1, human GPR119 (Homo sapiens, UniProt Q8TDV5).
T1 sequence (Q8TDV5 1-308 limits assumed): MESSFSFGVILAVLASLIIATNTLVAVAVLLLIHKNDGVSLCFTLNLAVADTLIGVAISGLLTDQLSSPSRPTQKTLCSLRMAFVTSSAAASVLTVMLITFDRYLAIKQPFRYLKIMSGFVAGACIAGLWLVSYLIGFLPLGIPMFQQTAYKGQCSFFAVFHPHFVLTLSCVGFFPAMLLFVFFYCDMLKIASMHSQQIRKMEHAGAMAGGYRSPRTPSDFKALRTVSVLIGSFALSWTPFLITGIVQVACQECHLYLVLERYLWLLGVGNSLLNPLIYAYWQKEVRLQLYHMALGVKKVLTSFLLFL
Nature of the experiment: Measurement of GPR119 signaling (cAMP assay) in cells stably transfected with human GPR119. The class given is cell-based. The conditions noted are these: cAMP stimulation; read-out: GPR119 HumC EC50. As for the experimental part: Measurement of GPR119 Signaling (Cyclic AMP (cAMP) Assay)
The adenylate cyclase assay was constructed following the LANCE™ cAMP Kit (Perkin Elmer, AD0264) instructions.
The reaction was stopped by incubating with the supplied detection buffer containing the europium chelate of the Eu-SA/Biotin-cAMP tracer for 3 hours. The assay was performed in duplicate in a 384 well plate for duplicate plates and fluorescence was measured at 665 nm. Basal activity was determined using a DMSO control and maximum response was defined as cAMP stimulation produced by an internal agonist control. Standard cAMP concentrations were assayed concurrently for conversion of fluorescence signal to cAMP level. The data was analyzed using 4-parameter curve fit in Microsoft Excel.
Measurement of GPR119 Signaling (cAMP Homogenous Time Resolved Fluorescence (HTRF) Assay)
Chinese hamster ovary (CHO) cell lines stably transfected with the permissive guanine nucleotide binding protein alpha 15 (Gα15) and murine GPR119 were maintained in DMEM media containing FBS, penicillin-streptomycin, puromycin, and G418 (geneticin). […] Agonist activation of the GPR119 receptor was measured in receptor transfected cells described above, treated with compounds of this invention, using a commercial homogenous time resolved fluorescence (HTRF) kit for measurement of cAMP (CisBio, Bedford, Mass.). The assay was performed in 96-well half-volume plates (murine) or 384-well plates (human) following the manufacturers instructions. Briefly, suspended cells were incubated with a dose titration of test compound at RT for 60 min, lysed, and incubated with HTRF reagents for an additional 60 min. The plate was read using an Envision multilabel reader (Perkin Elmer) adjusted to read time resolved fluorescence and the cAMP concentrations were extrapolated from a cAMP calibration curve. […] The concentration of test compound required to stimulate a half-maximal response (EC50), and efficacy as compared to an internal agonist control, was determined from a sigmoidal 4-parameter curve fit of the resulting plot of normalized activity versus compound concentration.
Background: cAMP levels reflect the balance of adenylyl cyclase and phosphodiesterase activity.
Take `CC1(OC(=O)N2CCC([C@H]3C[C@H]3CCOc3ccc(CC(=O)N4CC(F)C4)c(F)c3)CC2)CC1` [Example 63]: the pEC50 (usually −log10 of the EC50, conventionally taken in molar units) is 9.06.

For the molecule `CC1(O)CN(C(=O)Cc2ccc(OCC[C@@H]3C[C@@H]3C3CCN(C(=O)OC4(C)CC4)CC3)cc2F)C1` [Example 64], the pEC50 was 8.02.

Consider `CC1(OC(=O)N2CCC([C@H]3C[C@H]3CCOc3ccc(CC(=O)N4CC(F)(F)C4)c(F)c3)CC2)CC1` [Example 65], for which the pEC50 was 9.31.

For `CN(C)C(=O)Cc1ccc(OCC[C@@H]2C[C@@H]2C2CCN(C(=O)OC3(C)CC3)CC2)cc1F` [Example 66], the pEC50 was 8.62.

With `CC1(OC(=O)N2CCC([C@H]3C[C@H]3CCOc3ccc(CC(=O)N4CCOCC4)c(F)c3)CC2)CC1` [Example 67], the pEC50 is 8.07.

Take `CC1(OC(=O)N2CCC([C@H]3C[C@H]3CCOc3ccc(CC(=O)N4CCC[C@@H]4C(F)(F)F)c(F)c3)CC2)CC1` [Example 68]: the pEC50 was 8.29.

In the case of `CC1(OC(=O)N2CCC([C@H]3C[C@H]3CCOc3ccc(CC(=O)N4CCC4)c(Cl)c3)CC2)CC1` [Example 69], the negative-log EC50 (pEC50) was 8.82.

With `CC1(OC(=O)N2CCC([C@H]3C[C@H]3CCOc3ccc(CC(=O)N4CCC4)c(C#N)c3)CC2)CC1` [Example 70], the pEC50 is 8.57.

Turning to `O=C(Cc1ccc(OCC[C@@H]2C[C@@H]2C2CCN(C(=O)OC3CCC3)CC2)cc1F)N1CCC1` [Example 71], the pEC50 was 8.85.

As to `CC1(COC(=O)N2CCC([C@H]3C[C@H]3CCOc3ccc(CC(=O)N4CCC4)c(F)c3)CC2)CC1` [Example 72], the pEC50 is 8.44.

As for `O=C(Cc1ccc(OCC[C@@H]2C[C@@H]2C2CCN(C(=O)OCC3CCC3)CC2)cc1F)N1CCC1` [Example 73], the pEC50 was 8.66.

As to `CCC1(OC(=O)N2CCC([C@H]3C[C@H]3CCOc3ccc(CC(=O)N4CCC4)c(F)c3)CC2)CC1` [Example 74], the pEC50 is 8.57.

Turning to `CC(C)c1noc(N2CCC([C@H]3C[C@H]3CCOc3cc(F)c(CC(=O)N(C)C)cc3F)CC2)n1` [Example 75], the pEC50 is 9.22.

The same experiment, now with this note: stated in the example text without 'GPR119'; read-out: Human EC50.
For the molecule `CN(C)C(=O)Cc1cc(F)c(OCC[C@@H]2C[C@@H]2C2CCN(C(=O)OC3(C)CC3)CC2)cc1F` [Example 62, 1-methylcyclopropyl 4-[(1R,2S)-2-(2-{4-[2-(dimethylamino)-2-oxoethyl]-2,5-difluorophenoxy}ethyl)cyclopropyl]piperidine-1-carboxylate], the pEC50 was 8.66.

Still in this experiment, the particulars now being: stated in the example text; cAMP stimulation, human GPR119; read-out: GPR119 Human EC50.
As to `CC(C)OC(=O)N1CCC([C@H]2C[C@H]2CCOc2cc(F)c(C(=O)C3CC3)c(F)c2)CC1` [Example 51], the pEC50 is 9.10.

With `CC1(OC(=O)N2CCC([C@H]3C[C@H]3CCOc3ccc(CC(=O)N4CCCC4)cc3)CC2)CC1` [Example 56], the pEC50 was 8.33.

`CC1(OC(=O)N2CCC([C@H]3C[C@H]3CCOc3ccc(CC(=O)N4CCC4)cc3)CC2)CC1` [Example 57]: the pEC50 was 8.23.

For the molecule `CC(C)OC(=O)N1CCC([C@H]2C[C@H]2CCOc2cc(F)c(C(=O)NC3CC3)c(F)c2)CC1` [Example 58], the pEC50 is 8.46.

For the molecule `CC1(OC(=O)N2CCC([C@H]3C[C@H]3CCOc3ccc(CC(=O)N4CCC4)c(F)c3)CC2)CC1` [Example 59, 1-methylcyclopropyl 4-[(1R,2S)-2-(2-{4-[2-(azetidin-1-yl)-2-oxoethyl]-3-fluorophenoxy}ethyl)cyclopropyl]piperidine-1-carboxylate], the negative-log EC50 (pEC50) is 8.48.

In the case of `Cc1cc(OCC[C@@H]2C[C@@H]2C2CCN(C(=O)OC3(C)CC3)CC2)ccc1CC(=O)N1CCC1` [Example 60, 1-methylcyclopropyl-4-((1R,2S)-2-{2-[4-(2-azetidin-1-yl-2-oxoethyl)-3-methylphenoxy]ethyl}cyclopropyl)piperidine-1-carboxylate], the pEC50 was 8.27.

Turning to `O=C(Cc1ccc(OCC[C@@H]2C[C@@H]2C2CCN(C(=O)OCC3CC3)CC2)cc1F)N1CCC1` [Example 61, cyclopropylmethyl-4-((1R,2S)-2-{2-[4-(2-azetidin-1-yl-2-oxoethyl)-3-fluorophenoxy]ethyl}cyclopropyl)piperidine-1-carboxylate], the pEC50 is 8.70.

Turning to `CC(C)(C)NC(=O)N1CCC([C@H]2C[C@H]2CCOc2ccc(-n3cnnn3)cc2)CC1` [Example 76, N-(tert-butyl)-4-((1R,2S)-2-(2-(4-(1H-tetrazol-1-yl)phenoxy)ethyl)cyclopropyl)piperidine-1-carboxamide], the pEC50 is 7.83.

Turning to `O=C(CC1CCCCC1)N1CCC([C@H]2C[C@H]2CCOc2ccc(-n3cnnn3)cc2)CC1` [Example 77, 1-(cyclohexylacetyl)-4-((1R,2S)-2-{2-[4-(1H-tetrazol-1-yl)phenoxy]ethyl}cyclopropyl)piperidine], the pEC50 is 7.93.

With `CS(=O)(=O)c1ccc(OCC[C@@H]2C[C@@H]2C2CCN(C(=O)CC3CCCCC3)CC2)nc1` [Example 85, 2-(2-{(1S,2R)-2-[1-(cyclohexylacetyl)piperidin-4-yl]cyclopropyl}ethoxy)-5-(methylsulfonyl)pyridine], the pEC50 was 7.93.

The same experiment, now with this note: table column; cAMP stimulation, human GPR119; read-out: GPR119 Human EC50.
For the molecule `Cc1nc(C#N)cc(OCC[C@@H]2C[C@@H]2C2CCN(C(=O)OCC(C)C)CC2)n1` [Example 48], the pEC50 was 9.00.

Turning to `Cc1nc(C#N)cc(OCC[C@@H]2C[C@@H]2C2CCN(C(=O)OC3(C)CC3)CC2)n1` [Example 49], the pEC50 was 8.70.

Regarding `CC(C)(C)OC(=O)N1CCC([C@H]2C[C@H]2CCOc2cc(F)c(C(=O)C3CC3)c(F)c2)CC1` [Example 52], the pEC50 is 9.70.

For the molecule `O=C(c1c(F)cc(OCC[C@@H]2C[C@@H]2C2CCN(C(=O)OCc3ccccc3)CC2)cc1F)C1CC1` [Example 53], the negative-log EC50 (pEC50) was 7.74.

As for `CC1(OC(=O)N2CCC([C@H]3C[C@H]3CCOc3cc(F)c(C(=O)C4CC4)c(F)c3)CC2)CC1` [Example 54], the pEC50 is 9.15.

As for `CCOC(=O)N1CCC([C@H]2C[C@H]2CCOc2cc(F)c(C(=O)C3CC3)c(F)c2)CC1` [Example 55], the pEC50 is 8.96.

Take `O=C(CCC(F)(F)F)N1CCC([C@H]2C[C@H]2CCOc2ccc(-n3cnnn3)cc2)CC1` [Example 78]: the pEC50 is 8.07.

Consider `CC(C)CC(=O)N1CCC([C@H]2C[C@H]2CCOc2ccc(-n3cnnn3)cc2)CC1` [Example 79], for which the pEC50 was 8.11.

On to `CC(C)(CC(=O)N1CCC([C@H]2C[C@H]2CCOc2ccc(-n3cnnn3)cc2)CC1)C1CC1` [Example 80], for which the pEC50 was 8.40.

With `O=C(CC1CCC1)N1CCC([C@H]2C[C@H]2CCOc2ccc(-n3cnnn3)cc2)CC1` [Example 81], the pEC50 was 7.82.

In the case of `O=C(CC1CCCC1)N1CCC([C@H]2C[C@H]2CCOc2ccc(-n3cnnn3)cc2)CC1` [Example 82], the pEC50 is 7.80.

With `O=C(CC1(c2ccccc2)CCC1)N1CCC([C@H]2C[C@H]2CCOc2ccc(-n3cnnn3)cc2)CC1` [Example 83], the pEC50 was 7.82.

Consider `O=C(CC1CC2C=CC1C2)N1CCC([C@H]2C[C@H]2CCOc2ccc(-n3cnnn3)cc2)CC1` (stereo partly shown) [Example 84], for which the pEC50 was 8.43.

As for `CC(C)CC(=O)N1CCC([C@H]2C[C@H]2CCOc2ccc(S(C)(=O)=O)cn2)CC1` [Example 86], the negative logarithm of the EC50 (pEC50) was 7.54.

Consider `CS(=O)(=O)c1ccc(OCC[C@@H]2C[C@@H]2C2CCN(C(=O)CC3CCC3)CC2)nc1` [Example 87], for which the negative-log EC50 (pEC50) is 7.89.

On to `CS(=O)(=O)c1ccc(OCC[C@@H]2C[C@@H]2C2CCN(C(=O)CC3CCCC3)CC2)nc1` [Example 88], for which the pEC50 is 8.34.

For `CC(C)(C)CC(=O)N1CCC([C@H]2C[C@H]2CCOc2ccc(S(C)(=O)=O)cn2)CC1` [Example 89], the negative-log EC50 (pEC50) is 7.80.

Turning to `CS(=O)(=O)c1ccc(OCC[C@@H]2C[C@@H]2C2CCN(C(=O)CC3CC4C=CC3C4)CC2)nc1` (stereo partly shown) [Example 90], the pEC50 was 7.80.

Staying with this experiment, now noted: unit inferred; read-out: GPR119 Human EC50.
In the case of `Cc1nnc(-c2ccc(OCC[C@@H]3C[C@@H]3C3CCN(C(=O)OC(C)(C)C)CC3)cc2F)o1` [Example 50], the pEC50 is 8.74.
